The source of these data is ChEMBL document CHEMBL4627257, “Targeting the DNA damage response (DDR) by natural compounds” (Bioorg Med Chem, 2020).

In one experiment the test system is SU.86.86. Nature of the experiment: Induction of DNA damage in human SU8686 cells assessed as increase in gammaH2AX phosphorylation at […] at cytotoxic IC50 incubated for 24 hrs by fluorometry method. Type of experiment: functional.
Take `COC1=CC(=O)[C@]2(C=C1OC)OC[C@H]1Oc3c4c(cc(O)c3C(=O)[C@H]12)OC(C)(C)C=C4`: the Activity is above 30%.

As for `Cc1cc(O)cc2c1Oc1cc(O)c(O)c(C)c1C(=O)O2`, the Activity is reported as above 30%.

Turning to `C[C@H]1CCC/C=C\C(=O)Cc2cc(O)cc(O)c2C(=O)O1`, the Activity is above 30%.

For `CC[C@H](C)[C@H](NC(=O)[C@H](Cc1ccccc1)NC(=O)[C@H](CC(C)C)NC(=O)[C@@H]1CCCN1C(=O)/C1=C/N[C@@H](C(C)C)C(=O)N2CCC[C@H]2C(=O)N[C@@H](C(C)C)C(=O)N[C@@H](Cc2ccccc2)C(=O)N2CCC[C@H]2C(=O)N1)C(N)=O`, the Activity is above 30%.

As to `COC(C)CCOC(=O)c1cc(O)c(O)c(O)c1` (stereo not given), the Activity is above 30%.

`C=C1[C@@H](C)[C@H]2[C@H](Cc3ccccc3)NC(=O)[C@]23[C@H](OC(C)=O)/C=C\[C@@H](C)C[C@@H](C)C/C=C\[C@H]3[C@@H]1O`: the Activity entry is given as “>=30%”.

For the compound `C=C1CCC[C@H]2[C@](C)(CC3=C(O)C(=O)C=C(N[C@@H](CO)C(=O)O)C3=O)[C@@H](C)CC[C@]12C`, the Activity was above 30%.

As for `CC(=O)c1c(O)cc(O)cc1C[C@@H]1Cc2cc(O)cc(O)c2C(=O)O1`, the Activity is on record as above 30%.

With `O=C1C[C@@H](c2ccccc2)Oc2cc(O)cc(O)c21` [PINOCEMBRIN], the Activity is on record as above 30%.

As to `CCCCCC(N)=O`, the Activity was above 30%.

In the case of `CC(C)=CCc1cc(C(=O)/C=C/c2ccc(O)cc2)c(O)cc1O` [BROUSSOCHALCONE B], the Activity is on record as above 30%.

The test system of another experiment is SU.86.86. Kind of experiment: Induction of DNA damage in human SU8686 cells assessed as increase in gammaH2AX phosphorylation at […] at cytotoxic IC50 in presence of 5 uM cisplatin by fluorometry method. Type of experiment: functional.
As for `CC1=CCC[C@H]2[C@](C)(CC3=CC(=O)C=CC3=O)[C@@H](C)CC[C@]12C` [AVARONE], the Activity is given as above 20%.

As for `CC(C)=CCc1cc(-c2coc3cc(O)ccc3c2=O)ccc1O` [NEOBAVAISOFLAVONE], the Activity is on record as above 20%.

For `C=C1CC[C@@H]2C(C)(C)CCC[C@@]2(C)[C@@H]1CC/C(C)=C/Cn1c[n+](C)c2ncnc(NO)c21`, the Activity is recorded as above 20%.

On to `COc1cc(O)c2c(c1)C(=O)C1=C(C2=O)[C@H](O)[C@@H](O)[C@@](C)(O)[C@@H]1O` [ALTERSOLANOL A], for which the Activity is on record as above 20%.

In the case of `Oc1c(Br)cc(Br)cc1Oc1ccc(Br)cc1Br`, the Activity was above 20%.

As for `O=C1CCCN2[C@@H](CC1)C[C@]13CN4CCCC/C=C\CC[C@](O)(C=C(c5nccc6c5[nH]c5c(O)cccc56)[C@@H]1CC4)[C@H]23`, the Activity is reported as above 20%.

Turning to `CC1=C(CC/C(C)=C/CC/C(C)=C/CCC2=CC(=O)OC2O)C(C)(C)CCC1` (stereo not given) [LUFFARIELLOLIDE], the Activity is above 20%.

For `CCCc1cc(OC)cc(O)c1C(=O)Oc1c(OC)cc(CCC)c(C(=O)O)c1O`, the Activity is above 20%.

In the case of `Oc1cccc2c1[nH]c1c(C3=C[C@@]4(O)CC/C=C\CCCCN5CC[C@@H]3[C@]3(C[C@@H]6/C=C\CCCCN6[C@H]34)C5)nccc12`, the Activity is above 20%.

For the compound `C/C=C1\NC(=O)[C@H](Cc2ccccc2)NC(=O)[C@@H](C(C)C)NC(=O)[C@H]([C@@H](C)CC)NC(=O)[C@H](NC(=O)[C@H](NC(=O)[C@H](CCCN)NC(=O)[C@H]2CCCN2C(=O)[C@H](NC(=O)[C@@H](NC(=O)[C@H](NC(=O)[C@H](NC(=O)CCCC(C)C)C(C)C)[C@@H](C)O)C(C)C)C(C)C)[C@@H](C)CC)C(C)OC(=O)[C@H](C(C)C)NC1=O` (stereo not given in full), the Activity is given as above 20%.

Turning to `O=C1C[C@H](O)[C@H]2c3ccc(O)c4c3[C@H](c3ccc(O)c1c32)[C@@H](O)CC4=O`, the Activity is given as above 20%.

In a further experiment the test system is SU.86.86. Kind of experiment: Induction of DNA damage in human SU8686 cells assessed as increase in gammaH2AX phosphorylation at […] at cytotoxic IC50 in presence of 0.3 uM doxorubicin by fluorometry method. Type of experiment: functional.
Consider `C=C[C@@](C)(/C=C/c1ccc(O)cc1)CCC=C(C)C` [BAKUCHIOL], for which the Activity is on record as above 20%.

As to `COC1=C(Br)[C@@H](O)[C@]2(C=C1Br)CC(C(=O)NC[C@@H](O)c1cc(Br)c(OC[C@@H](O)CNC(=O)C3=NO[C@]4(C=C(Br)C(OC)=C(Br)[C@@H]4O)C3)c(Br)c1)=NO2`, the Activity is above 20%.

As to `C=CC(C)(C)[C@@]12C[C@H]3C(=O)N/C(=C/c4c[nH]cn4)C(=O)N3[C@@H]1Nc1ccccc12` [ROQUEFORTINE C], the Activity is given as above 20%.

In the case of `CCCCCC[C@H](C)/C=C(C)/C=C/C(=O)N[C@@H]1C[C@@]2(O[C@@H]1O)[C@@H]1O[C@@H]1C(=O)[C@@H]1O[C@@H]12`, the Activity was above 20%.

As for `Cc1cc(O)c2c(c1)C(=O)c1c(c(O)cc(O)c1-c1c(O)cc(O)c3c1C(=O)c1cc(C)cc(O)c1C3=O)C2=O` [SKYRIN], the Activity is given as above 20%.

With `CCCCCc1cc(OC)c(OC(=O)c2c(O)cc(OC)cc2CCC)c(O)c1C(=O)O`, the Activity is above 20%.

As to `CC1=CCC[C@H]2[C@](C)(CC3=CC(=O)C=CC3=O)[C@@H](C)CC[C@]12C` [AVARONE], the Activity is above 20%.

`COC(=O)/C=C/Oc1ccc(OC)cc1`: the Activity is on record as above 20%.

With `COc1ccc(CC#N)c(O)c1`, the Activity was above 20%.

In the case of `[O-][n+]1ccc2c([nH]c3ccccc32)c1C1=C[C@@]2(O)CC/C=C\CCCCN3CC[C@@H]1[C@]1(CC/C=C\CCCCN[C@H]12)C3`, the Activity was above 20%.

In the case of `COC1=C(Br)[C@H](O)[C@@]2(C=C1Br)CC(C(=O)NCCCCNC(=O)C1=NO[C@]3(C=C(Br)C(OC)=C(Br)[C@@H]3O)C1)=NO2` [AEROTHIONIN], the Activity is above 20%.

As to `CC(C)=CCc1cc(-c2coc3cc(O)ccc3c2=O)ccc1O` [NEOBAVAISOFLAVONE], the Activity is listed as above 20%.

Take `CCOC(=O)c1cc(Br)c(Br)[nH]1`: the Activity is above 20%.

`COc1cc(O)c2c(c1)C(=O)C1=C(C2=O)[C@H](O)[C@@H](O)[C@@](C)(O)[C@@H]1O` [ALTERSOLANOL A]: the Activity was above 20%.

On to `O=C1c2cccc(O)c2C(=O)c2c(O)cc(CO)cc21` [ALOE-EMODIN], for which the Activity is above 20%.

For `CC[C@H](C)[C@H]1C(=O)N[C@@H](Cc2ccc(OCC=C(C)C)cc2)C(=O)N(C)[C@@H](C)C(=O)O[C@@H](Cc2ccccc2)C(=O)N2CCC[C@H]2C(=O)N[C@H](C(=O)O)C(=O)N1C`, the Activity was above 20%.

Regarding `Oc1c(Br)cc(Br)cc1Oc1ccc(Br)cc1Br`, the Activity is given as above 20%.

In the case of `O=C1CCCN2[C@@H](CC1)C[C@]13CN4CCCC/C=C\CC[C@](O)(C=C(c5nccc6c5[nH]c5c(O)cccc56)[C@@H]1CC4)[C@H]23`, the Activity is above 20%.

Take `CC[C@H](C)C1C(=O)O[C@H](C(C)C)C(=O)N(C)[C@@H]([C@@H](C)CC)C(=O)O[C@H](C(C)C)C(=O)N(C)[C@@H](C(C)C)C(=O)O[C@H](C(C)C)C(=O)N1C` (stereo not given in full): the Activity is on record as above 20%.

As for `CC1=C(CC/C(C)=C/CC/C(C)=C/CCC2=CC(=O)OC2O)C(C)(C)CCC1` (stereo not given) [LUFFARIELLOLIDE], the Activity was above 20%.

For the compound `COc1cc(O)c2c(c1)C(=O)c1cc(C)c(O)cc1C2=O` [MACROSPORIN], the Activity is listed as above 20%.

For the compound `O=c1cc(CO)occ1O` [KOJIC ACID], the Activity is above 20%.

Take `COC(=O)c1cc(O)cc(OC)c1C(=O)c1c(O)c(Cl)c(C)c(Cl)c1O` [DIHYDROGEODIN]: the Activity is recorded as above 20%.

As to `O=c1[nH]c2ccccc2c(-c2ccccc2)c1O`, the Activity is on record as above 20%.

On to `CN1C(=O)NC(CCCNC(=O)c2cc(Br)c(Br)n2C)C1=O` (stereo not given) [MIDPACAMIDE], for which the Activity is given as above 20%.

For `COC1=C(Br)[C@H](O)[C@](O)(CC#N)C=C1Br`, the Activity was above 20%.

With `Oc1cccc2c1[nH]c1c(C3=C[C@@]4(O)CC/C=C\CCCCN5CC[C@@H]3[C@]3(C[C@@H]6/C=C\CCCCN6[C@H]34)C5)nccc12`, the Activity is listed as above 20%.

As for `CC(C)=CCC[C@@H](C)c1ccc(C)c(O)c1` [XANTHORRIZOL], the Activity is listed as above 20%.

Regarding `COc1cc(C[C@H]2COC(=O)[C@@H]2Cc2ccc(O)c(OC)c2)ccc1O` [MATAIRESINOL], the Activity is above 20%.

`CCCCCC(N)=O`: the Activity is reported as above 20%.

Turning to `COc1cc(O)c2c(=O)oc3cc(O)cc(C)c3c2c1`, the Activity is recorded as above 20%.

In the case of `CC1=CCC[C@H]2[C@](C)(Cc3cc(O)ccc3O)[C@@H](C)CC[C@]12C` [AVAROL], the Activity was above 20%.

Take `CC(C)=CCc1cc(C(=O)/C=C/c2ccc(O)cc2)c(O)cc1O` [BROUSSOCHALCONE B]: the Activity is above 20%.
